Measurements from publication PMC6759397 (Journal of pharmaceutical sciences, 2019).
Where two headings read alike, the source gives them in different places.

Assays:
[1] = target: T1, OATP1B1 (Homo sapiens, UniProt Q9Y6L6); conditions: read-out: reported Km for OATP1B1; HEK293 cells; cited from earlier work
T1 sequence (Q9Y6L6 1-691): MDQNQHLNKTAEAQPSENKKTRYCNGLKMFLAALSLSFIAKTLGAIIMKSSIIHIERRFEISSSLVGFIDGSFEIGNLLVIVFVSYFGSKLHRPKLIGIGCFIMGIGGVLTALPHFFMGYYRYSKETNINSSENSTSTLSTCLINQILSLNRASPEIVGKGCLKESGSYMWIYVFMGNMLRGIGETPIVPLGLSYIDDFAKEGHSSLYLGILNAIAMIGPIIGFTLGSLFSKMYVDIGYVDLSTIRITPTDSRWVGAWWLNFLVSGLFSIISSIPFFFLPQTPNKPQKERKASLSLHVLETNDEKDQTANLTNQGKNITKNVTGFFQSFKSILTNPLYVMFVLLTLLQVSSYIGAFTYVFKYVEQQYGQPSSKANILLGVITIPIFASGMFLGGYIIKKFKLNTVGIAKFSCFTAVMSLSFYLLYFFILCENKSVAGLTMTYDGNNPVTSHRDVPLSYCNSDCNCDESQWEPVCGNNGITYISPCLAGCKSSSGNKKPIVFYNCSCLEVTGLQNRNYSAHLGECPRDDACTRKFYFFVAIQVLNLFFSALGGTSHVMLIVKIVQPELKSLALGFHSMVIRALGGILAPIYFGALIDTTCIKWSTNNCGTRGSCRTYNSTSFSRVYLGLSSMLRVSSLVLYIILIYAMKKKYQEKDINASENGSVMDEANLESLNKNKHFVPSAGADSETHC

[2] = target: T2, OATP1B3 (Homo sapiens, UniProt Q9NPD5); conditions: cited from earlier work
T2 sequence (Q9NPD5 1-702): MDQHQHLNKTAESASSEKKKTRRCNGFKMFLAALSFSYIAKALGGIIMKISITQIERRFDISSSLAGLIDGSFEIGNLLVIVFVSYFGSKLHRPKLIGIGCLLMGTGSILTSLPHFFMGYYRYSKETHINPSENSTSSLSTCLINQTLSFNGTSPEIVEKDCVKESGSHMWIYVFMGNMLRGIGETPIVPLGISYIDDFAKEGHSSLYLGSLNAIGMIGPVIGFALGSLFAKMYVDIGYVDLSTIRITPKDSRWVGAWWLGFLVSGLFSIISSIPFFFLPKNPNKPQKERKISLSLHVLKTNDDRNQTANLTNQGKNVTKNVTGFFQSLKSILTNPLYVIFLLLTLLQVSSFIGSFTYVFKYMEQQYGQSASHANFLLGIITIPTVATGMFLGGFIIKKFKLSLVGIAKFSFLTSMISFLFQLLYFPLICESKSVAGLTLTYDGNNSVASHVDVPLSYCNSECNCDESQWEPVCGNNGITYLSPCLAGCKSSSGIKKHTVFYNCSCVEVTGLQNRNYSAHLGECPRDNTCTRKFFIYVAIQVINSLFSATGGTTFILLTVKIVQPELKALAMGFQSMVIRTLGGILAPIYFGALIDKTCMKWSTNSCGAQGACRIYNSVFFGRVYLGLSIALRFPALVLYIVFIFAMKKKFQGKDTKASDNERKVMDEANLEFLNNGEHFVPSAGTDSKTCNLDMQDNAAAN

[3] = target: T2, OATP1B3; assay: Inhibition of OATP1B3-mediated [3H]-CCK-8 transport in HEK293-OATP1B3 cells; type: cell-based; conditions: washing; for OATP1B3-mediated transport ([3H]-CCK-8 accumulation): 1 h pre-incubation alone: EVR 0.2 µM, SIR 0.5 µM, INK-128 10 µM; for OATP1B3-mediated [3H]CCK-8 accumulation: 1 h pre-incubation with EVR 0.2 µM
[4] = system: mTOR C1; assay: Immunoblot of phosphorylated p70S6K; type: cell-based, human; conditions: 1 h pre-incubation: EVR 0.2 µM, SIR 0.5 µM, INK-128 10 µM; vs vehicle control
[5] = system: mTOR C2; assay: Immunoblot of phosphorylated AKT; type: cell-based, human; conditions: 1 h pre-incubation: EVR 0.2 µM, SIR 0.5 µM, INK-128 10 µM; vs vehicle control
[6] = target: T1, OATP1B1; conditions: for OATP1B1-mediated transport ([3H]-E217βG accumulation): 1 h pre-incubation alone: EVR 0.2 µM, SIR 0.5 µM, INK-128 10 µM; for OATP1B1-mediated transport of [3H]-E1S after pre-incubation / OATP1B1-mediated transport of [3H]-rosuvastatin after pre-incubation: 1 h pre-incubation, EVR 0.1 or 0.2–10 µM, SIR 0.1–5 µM, 0.5 min, concentration-dependent, p<0.001; for OATP1B1-mediated transport of [3H]-E1S after pre-incubation: E1S 25 nM; for OATP1B1-mediated transport of [3H]-rosuvastatin after pre-incubation: rosuvastatin 20 nM
[7] = target: T1, OATP1B1; assay: Static R-value model for OATP1B1-mediated DDI
[8] = target: T1, OATP1B1; assay: Transport kinetics of OATP1B1-mediated E217βG transport in HEK293 cells; type: cell-based; conditions: co-incubation with 5 µM inhibitor, without pre-incubation
[9] = system: HEK293-OATP1B1; assay: LDH assay; type: cell-based, human; conditions: 1 h pre-incubation, EVR 0.001–10 µM, SIR 0.01–5 µM
[10] = target: T1, OATP1B1; conditions: substrate E1S; without pre-incubation; cited from earlier work
[11] = system: HEK293-OATP1B3; conditions: 1 h pre-incubation, EVR 0.001–10 µM, SIR 0.01–5 µM
[12] = cited from earlier work
[13] = system: OATP1A2; conditions: cited from earlier work
[14] = cited from earlier work; remark: listed apart in the source
[15] = human erythrocytes, blood concentration range 5–100 ng/ml; cited from earlier work
[16] = system: P-gp; conditions: Caco-2 monolayers; cited from earlier work
[17] = system: CYP3A4; conditions: cited from earlier work
[18] = system: CYP3A5; conditions: cited from earlier work
[19] = from co-incubation IC50, rosuvastatin
[20] = from pre+co-incubation IC50, E217βG
[21] = from pre+co-incubation IC50, rosuvastatin
[22] = IC50, [3H]-E1S (25 nM, 0.5 min), co-incubation
[23] = IC50, [3H]-E1S (25 nM, 0.5 min), pre+co-incubation (1 h pre-incubation)
[24] = IC50, [3H]-E217βG (1 µM, 2 min), co-incubation
[25] = IC50, [3H]-E217βG (1 µM, 2 min), pre+co-incubation (1 h pre-incubation)
[26] = IC50, [3H]-rosuvastatin (20 nM, 0.5 min), co-incubation
[27] = IC50, [3H]-rosuvastatin (20 nM, 0.5 min), pre+co-incubation (1 h pre-incubation)

Compound | Km [1] | OATP1B3-mediated transport ([3H]-CCK-8 accumulation) [3] | amount of phosphorylated p70S6K at T389 [4] | phosphorylation of AKT at S473 [5] | OATP1B1-mediated transport ([3H]-E217βG accumulation) ([6]; washing) | R [7, 19] | R [7, 20] | R [7, 21] | effect on Vmax of OATP1B1 [8] | increase of Km of OATP1B1 [8] | toxicity (LDH assay) [9] | IC50 [10] | toxicity (LDH assay) [11] | inhibition of OATP1A2 [13] | OATP1B1-mediated transport of [3H]-E1S after pre-incubation [6] | OATP1B1-mediated transport of [3H]-rosuvastatin after pre-incubation [6] | IC50 [6, 22] | IC50 [6, 23] | IC50 [6, 24] | IC50 [6, 25] | also measured
C[C@]12CC[C@@H]3c4ccc(O)cc4CC[C@H]3[C@@H]1CC[C@@H]2O[C@@H]1O[C@H](C(=O)O)[C@@H](O)[C@H](O)[C@H]1O [E217βG, estradiol 17 β-D-glucuronide] | 8.29 µM | – | – | – | – | – | – | – | – | – | – | – | – | – | – | – | – | – | – | – | –
C[C@]12CC[C@@H]3c4ccc(OS(=O)(=O)O)cc4CC[C@H]3[C@@H]1CCC2=O [E1S, estrone-3-sulfate] | 0.46 µM | – | – | – | – | – | – | – | – | – | – | – | – | – | – | – | – | – | – | – | –
cholecystokinin 8 [CCK-8] | – | – | – | – | – | – | – | – | – | – | – | – | – | – | – | – | – | – | – | – | Km [2]: 3.8 µM
CC(C)n1nc(-c2ccc3oc(N)nc3c2)c2c(N)ncnc21 [INK-128] | – | did not significantly affect | markedly reduced | markedly reduced | did not significantly affect | – | – | – | – | – | – | – | – | – | – | – | – | – | – | – | –
CO[C@H]1C[C@@H]2CC[C@@H](C)[C@@](O)(O2)C(=O)C(=O)N2CCCC[C@H]2C(=O)O[C@H]([C@H](C)C[C@@H]2CC[C@@H](O)[C@H](OC)C2)CC(=O)[C@H](C)/C=C(\C)[C@@H](O)[C@@H](OC)C(=O)[C@H](C)C[C@H](C)/C=C/C=C/C=C/1C [SIR, sirolimus] | – | 0.49 ± 0.03 fold of control | markedly reduced | did not inhibit | 0.60 ± 0.05 fold of control | 1.00 (1.00–1.03) | 1.01 (1.01–1.02) | 1.01 (1.01–1.03) | 1.2–1.7 fold vs. CTL | 6–10 fold | negligible toxicity | 9800 ± 1100 nM | negligible toxicity | inhibit | significantly decreased | significantly decreased | 830 ± 100 nM | 650 ± 120 nM | 640 ± 160 nM | 220 ± 40 nM | R [7]: 1.00 (1.00–1.01); R ([7]; from the previously published co-incubation IC50 (E1S, ref 24)): 1.00; time to steady state ([12]; multiple twice daily doses of 0.5–6.5 mg/m^2, stable renal transplant patients): 5 to 7 days; IC50 [6, 26]: 560 ± 300 nM; IC50 [6, 27]: 320 ± 110 nM
CO[C@H]1C[C@@H]2CC[C@@H](C)[C@@](O)(O2)C(=O)C(=O)N2CCCC[C@H]2C(=O)O[C@H]([C@H](C)C[C@@H]2CC[C@@H](OCCO)[C@H](OC)C2)CC(=O)[C@H](C)/C=C(\C)[C@@H](O)[C@@H](OC)C(=O)[C@H](C)C[C@H](C)/C=C/C=C/C=C/1C [EVR, everolimus] | – | 0.60 ± 0.03 fold of control | markedly reduced | did not inhibit | 0.67 ± 0.02 fold of control | 1.03 (1.02–1.09) | 1.19 (1.16–1.26) | 1.23 (1.10–1.42) | 1.2–1.7 fold vs. CTL | 6–10 fold | negligible toxicity | 4100 ± 1100 nM | negligible toxicity | inhibit | significantly decreased | significantly decreased | 610 ± 80 nM | 160 ± 20 nM | 480 ± 70 nM | 230 ± 60 nM | OATP1B3-mediated [3H]CCK-8 accumulation ([3]; 4 h in EVR-free medium): 0.76 ± 0.04 fold of CTL; OATP1B3-mediated [3H]CCK-8 accumulation ([3]; 6 h in EVR-free medium): 0.73 ± 0.04 fold of CTL; OATP1B3-mediated [3H]CCK-8 accumulation ([3]; 22 h in EVR-free medium): 0.81 ± 0.06 fold of CTL; OATP1B3-mediated transport of [3H]CCK-8 ([3]; after 1 h pre-incubation with EVR 0.2 µM): 0.76 ± 0.05 fold of control; Compound type [14]: Neutral; erythrocyte binding [15]: approximately 85%; Vss [12]: 1.55 (CV 36.0%) L/kg; steady-state AUC vs single dose AUC [12]: approximately 1.5 fold higher; time to steady state ([12]; multiple doses, 10 mg daily): around 7 days; basolateral-to-apical vs apical-to-basolateral transport [16]: ~ 20 fold; Ki ([17]; CYP3A4): 90 nM; fu,mic [17]: 0.14; Ki ([18]; CYP3A5): 90 nM; fu,mic [18]: 0.14; Ki [6]: 22 nM; OATP1B1-mediated rosuvastatin accumulation ([6]; 1 h pre-incubation with EVR 0.2 µM, washing, 4 h in fresh EVR-free medium): 0.87 ± 0.03 fold of CTL; IC50 [6, 26]: 1580 ± 920 nM; IC50 [6, 27]: 190 ± 70 nM; OATP1B1-mediated transport of [3H]rosuvastatin ([6]; after 1 h pre-incubation with EVR 0.2 µM, washing): 0.54 ± 0.07 fold of control
